In paper PMC11697113, “The Hsc70 system maintains the synaptic SNARE protein SNAP-25 in an assembly-competent state and delays its aggregation [drawing 1]” (The Journal of Biological Chemistry, 2024):

How the values were obtained:
[1] = target: T1, Hsc70 (Homo sapiens, UniProt P11142); assay: ATPase activity of Hsc70 (malachite green); type: biochemical; settings: Hsc70 2 μM, peptide 200 μM, 1 mM ATP, HMK buffer, 1 mM DTT, 37 °C, 1 h, malachite green 620 nm; SD, three independent experiments
T1 construct: 6X His-tag (TEV-cleavable) (cleaved yes); made in house; host or cells: E. coli Rosetta (DE3)
T1 sequence (P11142 whole entry): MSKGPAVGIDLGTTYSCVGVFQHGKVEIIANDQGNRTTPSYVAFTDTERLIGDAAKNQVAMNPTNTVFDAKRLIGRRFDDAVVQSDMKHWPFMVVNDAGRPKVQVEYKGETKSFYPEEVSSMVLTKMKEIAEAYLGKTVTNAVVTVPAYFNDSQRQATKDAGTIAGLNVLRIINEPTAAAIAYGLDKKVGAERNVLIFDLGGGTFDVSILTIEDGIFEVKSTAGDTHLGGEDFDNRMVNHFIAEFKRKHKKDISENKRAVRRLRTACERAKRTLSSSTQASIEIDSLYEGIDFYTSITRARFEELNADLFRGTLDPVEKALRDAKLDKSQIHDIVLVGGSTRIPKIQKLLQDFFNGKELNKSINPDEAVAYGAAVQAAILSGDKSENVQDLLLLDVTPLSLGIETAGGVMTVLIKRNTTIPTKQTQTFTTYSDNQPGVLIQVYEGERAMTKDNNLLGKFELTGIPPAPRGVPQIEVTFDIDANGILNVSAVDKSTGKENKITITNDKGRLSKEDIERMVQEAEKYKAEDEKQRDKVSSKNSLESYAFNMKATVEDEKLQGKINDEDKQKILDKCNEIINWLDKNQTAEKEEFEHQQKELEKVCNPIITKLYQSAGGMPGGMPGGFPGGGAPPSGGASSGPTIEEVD
Text: Hsp70s consist of an nucleotide-binding domain (NBD) and a substrate-binding domain (SBD). Hsc70 works using an allosteric mechanism whereby substrate binding at the SBD stimulates the ATP hydrolysis rate at the nucleotide-binding domain. The basal ATPase rate of Hsp70 is low, usually about 0.05 ± 0.009 mol Pi/mol protein, and increases when it is stimulated by binding of a peptide to the canonical site in the SBD. We measured the ability of SNAP-25 peptides SNNP and SNCP to stimulate the ATPase rate of Hsc70 (Fig. 5A). SNNP and SNCP binding cause a 1.5-fold increase of the Hsc70 ATPase rate over basal (observed rates upon addition of SNNP and SNCP were 0.089 ± 0.008 and 0.080 ± 0.005, respectively). In order to confirm that peptides are indeed binding at the canonical binding site of Hsc70, we used the V438F mutant that blocks the binding site ([37]). […] The addition of CSPαJ stimulates the ATPase activity of Hsc70 ∼4-fold with and without peptides.
Figure 5 SNN and SNC peptides interact with the canonical substrate-binding site of Hsc70.A, ATPase activity of Hsc70 (2 μM) in the absence (gray) and presence of 200 μM SNNP (orange) and SNCP (green) peptides. Error bars represent the SDs from three independent experiments. B, binding of SNAP-25 (black), SNNP (orange), LoopP (blue), and SNCP (green) peptides to Hsc70 followed by competition for FITC-p5 peptide using fluorescence anisotropy. Increasing concentrations of the competitors were added to a complex of Hsc70 (5 μM) and FITC-p5 peptide (50 nM). Error bars represent SDs from three independent experiments. […]
We performed ATPase assays to observe the activity of Hsc70 in the presence of SNAP25 peptides. […] Absorbance readings were taken at 620 nm using a BioTek plate reader. […]
(C) ATPase activity of Hsc70 (at 2 μM) in the absence (grey) and presence of 200 μM SNNP (orange) and L(Loop)-SNCP (green) peptides, and in the absence and presence of CSPa-J and CSPa-J/Apg2. The statistical significance was calculated using one-way ANOVA test with Sidak’s multiple comparison and the Hsc70 ATPase activity […]

[2] = target: T1, Hsc70; assay: Methyl-TROSY NMR of Ile-13CH3-labeled Hsc70 with peptides; type: binding; settings: Ile-13CH3 Hsc70 40 μM, 25 °C, 600 MHz, pD 7.4
Procedure: Figure 5 SNN and SNC peptides interact with the canonical substrate-binding site of Hsc70.A, ATPase activity of Hsc70 (2 μM) in the absence (gray) and presence of 200 μM SNNP (orange) and SNCP (green) peptides. Error bars represent the SDs from three independent experiments. B, binding of SNAP-25 (black), SNNP (orange), LoopP (blue), and SNCP (green) peptides to Hsc70 followed by competition for FITC-p5 peptide using fluorescence anisotropy. Increasing concentrations of the competitors were added to a complex of Hsc70 (5 μM) and FITC-p5 peptide (50 nM). Error bars represent SDs from three independent experiments. C, structure of the canonical substrate-binding site of human HspA1 (PDB 4po2) illustrating the location of Hsc70 residues Ile 403 and Ile 440 in red and green spheres, respectively (N.B., Hsc70 and HspA1 share […] sequence identity). The SBD is shown in gray, bound substrate in cyan sticks, and the side chain of the residue occupying the 0th position in the chaperone (“anchor residue”) in orange ball and sticks. For better visualization of the substrate-binding site, residues 512 to 613, 405 to 408, and 431 were removed in this illustration of the structure. D, the Ile region of the ^1H-^13 C HMQC spectra of Ile-^13CH3-labeled Hsc70 (40 μM) in the absence (black) and in the presence of unlabeled SNNP (orange) and SNCP (green) peptides (200 μM).
To directly observe binding of SNAP-25 peptides to Hsc70, we used methyl-TROSY NMR. We recorded the spectra of complexes between peptides containing the Hsc70 binding sites of SNAP-25 and Hsc70 selectively labeled (^1H,^13 C) at Ile δ1-methyl positions in a ^2H, ^12C background. We had previously found using the Escherichia coli Hsp70, DnaK, that the δ1-methyl chemical shifts of Ile 401 and 438, which contact the central residue of the bound peptide (anchor residue, Fig. 5C), change markedly depending on the identity of the bound anchor residue and the orientation of the peptide backbone with respect to DnaK ([38]). In Hsc70, the side chains of Ile 403 and 440 are similarly arranged with respect to the anchor residue of the bound peptide as Ile 401 and 438 are in DnaK (Fig. 5C) allowing us to use their δ1-methyl chemical shifts to assess directly how the chaperone binds to SNAP-25 peptides SNNP and SNCP. We confirmed the assignment of Ile 403 and Ile 440 chemical shifts by mutating these residues to Leu and collecting methyl-TROSY NMR spectra. The Hsp70 SBD site that binds the anchor residue (termed the 0th pocket) is most frequently occupied by Leu or Ile and less commonly by Val, Pro, or Met ([38], [39], [40], [41]). […]
NMR experiments were carried out at 25 °C on a 600 MHz Bruker Avance III spectrometer equipped with a CryoProbe. Data were processed with NMRPipe and analyzed using ccpNMR Analysis. […]

With “EREQMAISGGFIRR [SNCP, peptide … from the LOOP-SNC domain of SNAP-25]” the “ATPase rate of Hsc70 upon addition of peptide” value [1] was 0.080 ± 0.005, the “Ile 403 and 440 δ1-methyl signals on complex formation” value [2] was “indeed shift upon complex formation” and the “Ile 440 chemical shift splitting (binding modes)” value [2] was “split into two signals”.
In the case of “RRMLQLVEESK [SNNP, peptide … from the SNN domain of SNAP-25]”, the “ATPase rate of Hsc70 upon addition of peptide” value [1] is reported as 0.089 ± 0.008, the “Ile 403 and 440 δ1-methyl signals on complex formation” value [2] is reported as “indeed shift upon complex formation” and the “Ile 440 and 403 δ1-methyl chemical shift splitting (binding modes)” value [2] is reported as “split into two resonances each”.
